One assay deals with NCI-H1703. Briefly: Antiproliferative activity against human NCI-H1703 cells assessed as inhibition of cell proliferation incubated for 72 hrs by MTT assay. It is filed as functional, cell-based. The conditions noted are these: NCI-H1703, 72 h. Background: Tetrazolium dyes change colour on reduction, which living cells bring about.
A further assay deals with BT-549. Briefly: Antiproliferative activity against human BT-549 cells assessed as inhibition of cell proliferation incubated for 72 hrs by MTT assay. The format is functional, cell-based. The conditions noted are these: BT-549, 72 h.
For a further assay, the system named is A549. Description: Antiproliferative activity against human A549 cells assessed as inhibition of cell proliferation incubated for 72 hrs by MTT assay. The format is functional, cell-based. The settings on record: A549, 72 h.
Assay [1] can be described thus: Antiproliferative activity against human COV362 cells assessed as inhibition of cell proliferation incubated for 72 hrs by MTT assay. The format is functional, cell-based. The settings on record: COV362, 72 h.
Another assay relates to HEY. Description: Antiproliferative activity against human HEY cells assessed as inhibition of cell proliferation incubated for 72 hrs by MTT assay. It is filed as functional, cell-based.
A further assay deals with SK-OV-3. Briefly: Antiproliferative activity against human SK-OV-3 cells assessed as inhibition of cell proliferation incubated for 72 hrs by MTT assay. It is filed as functional, cell-based. The conditions noted are these: SK-OV-3, 72 h.
Assay [2] has as its system A2780. Briefly: Antiproliferative activity against human A2780 cells assessed as inhibition of cell proliferation incubated for 72 hrs by MTT assay. The conditions noted are these: A2780, 72 h. The format is functional, cell-based.
For a further assay, the system named is SK-BR-3. Briefly: Antiproliferative activity against human SK-BR-3 cells assessed as inhibition of cell proliferation incubated for 72 hrs by MTT assay. It is filed as functional, cell-based. The settings on record: SK-BR-3, 72 h.
In the next assay the test system is ES-2. Description: Antiproliferative activity against human ES2 cells assessed as inhibition of cell proliferation incubated for 72 hrs by MTT assay. It is filed as functional, cell-based. The conditions noted are these: ES-2, 72 h.
For another assay, the system named is MCF7. Briefly: Antiproliferative activity against human MCF7 cells assessed as inhibition of cell proliferation incubated for 72 hrs by MTT assay. The format is functional, cell-based. The settings on record: MCF7, 72 h.
The test system of assay [3] is PA-1. Description: Antiproliferative activity against human PA-1 cells assessed as inhibition of cell proliferation incubated for 72 hrs by MTT assay. The format is functional, cell-based. The conditions noted are these: PA-1, 72 h.
The test system of another assay is OAW-42. Briefly: Antiproliferative activity against human OAW-42 cells assessed as inhibition of cell proliferation incubated for 72 hrs by MTT assay. It is filed as functional, cell-based. The settings on record: OAW-42, 72 h.
The subject of another assay is OVCAR-3. Briefly: Antiproliferative activity against human OVCAR-3 cells assessed as inhibition of cell proliferation incubated for 72 hrs by MTT assay. It is filed as functional, cell-based. The settings on record: OVCAR-3, 72 h.
The next assay concerns 4T1. Description: Antiproliferative activity against mouse 4T1 cells assessed as inhibition of cell proliferation incubated for 72 hrs by MTT assay. It is filed as functional, cell-based. The conditions noted are these: 4T1, 72 h.
Assay [4] concerns the target T1, Histone-lysine N-methyltransferase EZH2 (Homo sapiens, UniProt Q15910). Description: Inhibition of wild type EZH2 (unknown origin) by AlphaLlSA assay.
Target sequence in this assay (Q15910 whole entry): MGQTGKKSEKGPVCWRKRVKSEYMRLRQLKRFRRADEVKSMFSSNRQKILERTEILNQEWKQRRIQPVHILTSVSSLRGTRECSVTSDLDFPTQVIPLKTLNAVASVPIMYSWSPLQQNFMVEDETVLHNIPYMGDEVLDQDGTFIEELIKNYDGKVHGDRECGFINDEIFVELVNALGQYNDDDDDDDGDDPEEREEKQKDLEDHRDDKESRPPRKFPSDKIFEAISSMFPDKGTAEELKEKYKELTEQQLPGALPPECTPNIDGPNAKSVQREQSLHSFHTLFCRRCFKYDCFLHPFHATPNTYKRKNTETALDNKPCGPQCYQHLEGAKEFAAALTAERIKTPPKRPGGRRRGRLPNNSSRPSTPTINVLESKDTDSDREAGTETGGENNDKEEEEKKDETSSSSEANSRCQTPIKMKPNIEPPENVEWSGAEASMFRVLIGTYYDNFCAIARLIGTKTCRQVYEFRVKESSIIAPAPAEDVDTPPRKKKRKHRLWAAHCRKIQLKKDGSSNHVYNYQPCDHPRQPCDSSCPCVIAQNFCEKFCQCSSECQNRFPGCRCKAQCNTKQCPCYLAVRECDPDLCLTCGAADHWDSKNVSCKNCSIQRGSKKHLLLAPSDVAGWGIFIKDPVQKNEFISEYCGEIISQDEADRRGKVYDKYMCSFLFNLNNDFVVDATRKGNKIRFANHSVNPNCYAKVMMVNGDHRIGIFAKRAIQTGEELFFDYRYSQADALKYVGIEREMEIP
Assay [5] concerns PA-1. Description: Antitumor activity against human PA-1 cells xenografted in BALB/C nude mouse assessed as tumor growth inhibition at 150 mg/kg,po BID for 21 days. The format is functional. The settings on record: PA-1, 504 h, time 21 day, read-out: TGI. In general terms: Xenograft models place foreign cells or tissue in a host animal.
The test system of assay [6] is PA-1. Description: Antiproliferative activity against human PA-1 cells assessed as reduction in cell viability at 10 uM incubated for 3 days followed by compound washout and measured after 4 days by microscopy analysis. The format is functional, cell-based. The conditions noted are these: time 3.0 day.
In assay [7] the target is T1, Histone-lysine N-methyltransferase EZH2. Briefly: Binding affinity to wild type recombinant EZH2 (494 to 737 residues) (unknown origin) expressed in Escherichia coli assessed as adduct formation incubated for 2 hrs by LC-MS analysis.
Target sequence in this assay (Q15910 whole entry, looked up): as the sequence (Q15910 whole entry) above
The subject of assay [8] is A2780. Description: Inhibition of colony formation in human A2780 cells assessed as reduction in size of colonies at 0.25 to 10 uM incubated for 14 days with medium change every 3 days by crystal violet staining method. The format is functional, cell-based. The settings on record: dose 0.25-10 µM, time 14.0 day.
The subject of assay [9] is PA-1. Briefly: Inhibition of colony formation in human PA-1 cells assessed as reduction in number of colonies at 0.25 to 10 uM incubated for 14 days with medium change every 3 days by crystal violet staining method. The settings on record: dose 0.25-10 µM, time 14.0 day. It is filed as functional, cell-based.
Assay [10] relates to PA-1. Description: Inhibition of colony formation in human PA-1 cells assessed as reduction in size of colonies at 0.25 to 10 uM incubated for 14 days with medium change every 3 days by crystal violet staining method. It is filed as functional, cell-based. The settings on record: dose 0.25-10 µM, time 14.0 day.
The test system of assay [11] is A2780. Description: Inhibition of colony formation in human A2780 cells assessed as reduction in number of colonies at 0.25 to 10 uM incubated for 14 days with medium change every 3 days by crystal violet staining method. The format is functional, cell-based. The conditions noted are these: dose 0.25-10 µM, time 14.0 day.
For assay [12], the target named is T1, Histone-lysine N-methyltransferase EZH2. Briefly: Inhibition of EZH2 methyltransferase activity in human A2780 cells assessed as reduction in H3K27me3 level incubated for 3 days by Western blot analysis. The format is cell-based. A general note: A western blot detects proteins with antibodies after separation by electrophoresis.
Target sequence in this assay (Q15910 whole entry): as above

pIC50: −log10 of the molar value. Activity calls are given as the source filed them. No cut-off for these calls is given here.

Seven compounds from ChEMBL document CHEMBL5316326, “Discovery of a Novel Covalent EZH2 Inhibitor Based on Tazemetostat Scaffold for the Treatment of Ovarian Cancer” (J Med Chem, 2023) can be followed below.

As usually defined, the pIC50 is −log10 of the IC50, conventionally taken in molar units.

On to `CCC(=O)Nc1cccc(-c2cc(C(=O)NCc3c(C)cc(C)[nH]c3=O)c(C)c(N(CC)C3CCOCC3)c2)c1`, for which the negative-log IC50 (pIC50) (with NCI-H1703; with BT-549; with A549; in assay [1]; in the assay on HEY; in the assay on SK-OV-3) was under 4.00 each time. For the same compound, the pIC50 with A2780 [2] is 4.46; in the assay on SK-BR-3 it was under 4.00; with ES-2 it was under 4.00; in the assay on MCF7 it was under 4.00; with PA-1 [3] it was under 4.00; in the assay with OAW-42, under 4.00. Further, the negative-log IC50 (pIC50) with OVCAR-3 was under 4.00; with 4T1 it was 4.23.
For `CCOCCNC(=O)/C(C)=C/C[C@@]12OC(C)(C)C3C[C@@H](C=C4C(=O)c5c(O)c(C/C=C(\C)CCC=C(C)C)c(O)c(CC=C(C)C)c5O[C@]431)C2=O` (single isomer, unassigned), the pIC50 in [4] was 5.96.
Take `CCN(c1cc(-c2ccc(CN3CCOCC3)cc2)cc(C(=O)NCc2c(C)cc(C)[nH]c2=O)c1C)C1CCOCC1` [TAZEMETOSTAT]: the pIC50 in the assay with NCI-H1703 is under 4.00; in the assay on BT-549, 4.24; with A549 it was under 4.00; in [1], under 4.00; with HEY, under 4.00; in the assay with SK-OV-3, 4.05. Besides, the pIC50 in the assay with A2780 [2] was 4.33; in the assay with SK-BR-3 it was 4.17; with ES-2, 4.10; in the assay with MCF7, under 4.00; in the assay on PA-1 [3] it was 4.33; in the assay on OAW-42, under 4.00. For the same compound, the negative logarithm of the IC50 (pIC50) in the assay with OVCAR-3 was under 4.00; in the assay with 4T1, 4.53. Moreover, in the assay with PA-1 [5], the inhibition in vivo at 150 mg/kg was found to be 56.8%. In addition, in the assay on PA-1 [6], the outcome was inactive.
Consider `C=CC(=O)Nc1cccc(-c2cc(C(=O)NCc3c(C)cc(C)[nH]c3=O)c(C)c(N(CC)C3CCOCC3)c2)c1`, for which the pIC50 in the assay on NCI-H1703 was 4.43; with BT-549, 4.22; in the assay on A549, 4.48; in assay [1], under 4.00; in the assay with HEY, 4.18; in the assay with SK-OV-3 it was 4.38. Besides, the negative-log IC50 (pIC50) was 4.80 with A2780 [2]; 4.18 with SK-BR-3; 4.41 in the assay with ES-2; 4.20 with MCF7; 4.61 in the assay with PA-1 [3]; 8.79 in assay [4]. The results for the negative-log IC50 (pIC50) in the assay on OAW-42, with OVCAR-3 and with 4T1 were under 4.00, under 4.00 and 4.51, respectively.
Regarding `CC[C@H](C)n1cc(C)c2c(C(=O)NCc3c(C)cc(C)[nH]c3=O)cc(-c3ccc(N4CCNCC4)nc3)cc21` [GSK2816126], the pIC50 with NCI-H1703 was under 4.00; in the assay on BT-549, 4.63; in the assay on A549, 4.64; in assay [1] it was under 4.00; in the assay with HEY it was under 4.00; with SK-OV-3, 4.16. Further, the pIC50 in the assay on A2780 [2] was 4.92; in the assay with SK-BR-3, 4.81; in the assay with ES-2, 4.49; in the assay on MCF7 it was 4.73; in the assay with PA-1 [3], 4.91; with OAW-42, 4.26. Moreover, the pIC50 with OVCAR-3 was 4.53; with 4T1 it was 4.98.
`C=CC(=O)NCc1ccc(-c2cc(C(=O)NCc3c4c(c(C)[nH]c3=O)CCCC4)c(C)c(N(CC)C3CCOCC3)c2)cc1`: the outcome in [7] was inactive. The compound further had a pIC50 in assay [4] of 7.97.
As for `CCC(=O)Nc1ccc(C)c(-c2cc(C(=O)NCc3c(C)cc(C)[nH]c3=O)c(C)c(N(CC)C3CCOCC3)c2)c1`, the inhibition result in the assay with A2780 [8], in the assay with PA-1 [9], in the assay with PA-1 [10] and with A2780 [11] was “Dose-Dependent Effect” each time. Besides, the pIC50 is 4.16 with NCI-H1703; under 4.00 in the assay on BT-549; under 4.00 in the assay on A549; under 4.00 in assay [1]; under 4.00 with HEY; under 4.00 in the assay with SK-OV-3. Also, the pIC50 with A2780 [2] was 4.22; with SK-BR-3, under 4.00; in the assay with ES-2, 4.05; in the assay with MCF7, under 4.00; in assay [12], 5.33; in the assay with PA-1 [3] it was 4.11. Besides, the pIC50 was 8.52 in assay [4], under 4.00 in the assay on OAW-42, under 4.00 in the assay on OVCAR-3 and under 4.00 with 4T1. Moreover, the result (in assay [7]; in the assay with PA-1 [6]) was inactive.
